Data published in patent publication US10494397B2, “Rebaudioside analogs” (PepsiCo, Inc., priority 2016, dated 2019).

What was measured:
Tasters [1] = assay: Sensory evaluation of test material as a sweetener (taster panel, scale of 1 to 10); assay type: in vivo, human; set-up: key: not observed or only minimally observed (−); highly observed (+++); settings: for Bitterness: taster comments and scores converted into symbols; for Sweet Intensity: averaged taster scores, scale 1 to 10 with Reb A 400 ppm = 5 and sucrose 6.5% = 10, noseclips, blinded; for Sweet Quality: based upon temporal profile (sweet onset, linger) and attributes such as syrupy, round, clean
Description: Sample preparation protocol for testing material as a sweetener: Tasters wore noseclips and were blinded to the identity of the test material. Tasters sampled 400 ppm Rebaudioside A and 6.5 Brix sucrose prior to the test material. Reb A 400 ppm was assigned a 5 on the scale of 1 to 10 as shown in FIG. 8 and sucrose (6.5%) was assigned a 10 on the same scale. Tasters were asked to rinse their mouths 5 times with water between tasting each sample. Tasters were then given the test article and asked to rank the test article for sweetness on the noted scale. Tasters were also asked to provide comments about bitterness, linger, flavors, and any other perceptions.
Numerical scores from all tasters were averaged and, taken together with comments regarding sweet quality, bitterness and off-tastes, converted into the symbols “−,” “+,” “++,” and “+++” to indicate whether a given characteristic was not observed or only minimally observed (−) or highly observed (+++). For example, a sample having a “−” in both sweet intensity and bitterness should be understood as a sample having minimal or no sweetness and minimal or no bitter flavor. By contrast, a sample having a “+++” in both sweet intensity and bitterness should be understood as a sample having highly observed sweet intensity and bitterness.
Preparation of Reb A in this experiment: Prepare 400 ppm Reb A in water (pH=7): 40 mg of Rebaudioside A was dissolved with stirring in 100 ml of water at room temperature.
Preparation of Sucrose in this experiment: Prepare 6.5% Sucrose in water (pH=7): weight 6.5 gr of Sucrose and dissolve it in 93.5 gr water (total 100 gr)
• Sweet quality was based upon a temporal profile (sweet onset, linger) and attributes such as syrupy, round, clean.

Tasters [2] = assay: Sweetness enhancement, Forced Choice Test; assay type: in vivo, human; set-up: key: not observed or only minimally observed (−); highly observed (+++); settings: sweetener (4 Brix sucrose, 4 Brix HFCS or 200 ppm Rebaudioside A) with vs without test compound at a level below 1.5% SEV
Method: Sample preparation protocol: For testing the material as a sweet/flavor modifying ingredient, two samples were prepared: a 4° Brix high-fructose corn syrup (HFCS) control solution and a 4° Brix HFCS solution with a known concentration of test ingredient.
Sample Preparation: 4° Brix HFCS control solution was prepared by adding 50.89 grams of 78.60° Brix HFCS to 1000 g phosphoric acid base which was prepared by adding phosphoric acid dropwise into 1 L of Aquafina Water until pH 3.1 was obtained. pH was measured using a METTLER TOLEDO pH meter.
In the case of a different Brix of HFCS starting syrup, the following formula can be used for the amount of HFCS required to make HFCS control solution. 4° Brix/100*1000 mL/(78.5° Brix/100)=50.96
If any cloudiness persisted, the sample solution was passed through a paper filter. For some low soluble compounds, Branson 2800 Ultra Sonic Bath was used to dissolve the material. If any cloudiness persisted, the sample solution was passed through a paper filter. Solubility was confirmed by shining a laser pointer through the solution. If no diffraction was observed then it was assumed that the material was soluble
12-16 tasters were presented with these two(2) numbered samples: one contained a sweetener such as 4Brix sucrose, 4 Brix high-fructose corn syrup or 200 ppm Rebaudioside A in phosphate buffer. […]

Row | SMILES | Bitterness (Tasters [1]) | Sweet Intensity (Tasters [1]) | Sweet Quality (Tasters [1]) | Enhancement (Tasters [2])
1 | C=C1C[C@@]23CC[C@H]4[C@@](C)(CCC[C@@]4(C)C(=O)N[C@H](Cc4ccccc4)C(=O)O)[C@@H]2CC[C@]1(O[C@@H]1O[C@H](CO)[C@@H](O)[C@H](O[C@@H]2O[C@H](CO)[C@@H](O)[C@H](O)[C@H]2O)[C@H]1O[C@@H]1O[C@H](CO)[C@@H](O)[C@H](O)[C@H]1O)C3 [Compound 5E2] | − |  |  | 
2 | C=C1C[C@@]23CC[C@H]4[C@@](C)(CCC[C@@]4(C)C(=O)N[C@H](Cc4ccccc4)C(=O)OC)[C@@H]2CC[C@]1(O[C@@H]1O[C@H](CO)[C@@H](O)[C@H](O[C@@H]2O[C@H](CO)[C@@H](O)[C@H](O)[C@H]2O)[C@H]1O[C@@H]1O[C@H](CO)[C@@H](O)[C@H](O)[C@H]1O)C3 [Compound 5E1, Rebaudioside B- D-Phenylalanine Methyl ester] | +++ | − | − | 
3 | C=C1C[C@@]23CC[C@H]4[C@@](C)(CCC[C@@]4(C)C(=O)NCC(=O)O)[C@@H]2CC[C@]1(O[C@@H]1O[C@H](CO)[C@@H](O)[C@H](O[C@@H]2O[C@H](CO)[C@@H](O)[C@H](O)[C@H]2O)[C@H]1O[C@@H]1O[C@H](CO)[C@@H](O)[C@H](O)[C@H]1O)C3 [Compound 5A2, Rebaudioside B-Glycine] |  | +++ |  | +++
4 | C=C1C[C@@]23CC[C@H]4[C@@](C)(CCC[C@@]4(C)C(=O)O[C@@H]4O[C@H](CO)[C@@H](O)[C@H](O)[C@@H]4O)[C@@H]2CC[C@]1(O[C@@H]1O[C@H](CO)[C@@H](O)[C@H](O[C@@H]2O[C@H](CO)[C@@H](O)[C@H](O)[C@H]2O)[C@H]1O[C@@H]1O[C@H](CO)[C@@H](O)[C@H](O)[C@H]1O)C3 [Compound 7A, Rebaudioside B Mannoside] |  | +++ |  | 
5 | C=C1C[C@@]23CC[C@H]4[C@@](C)(CCC[C@@]4(C)C(=O)O[C@@H]4O[C@H](CO)[C@H](O)[C@H](O)[C@H]4O)[C@@H]2CC[C@]1(O[C@@H]1O[C@H](CO)[C@@H](O)[C@H](O[C@@H]2O[C@H](CO)[C@@H](O)[C@H](O)[C@H]2O)[C@H]1O[C@@H]1O[C@@H](C)[C@H](O)[C@@H](O)[C@H]1O)C3 [Compound 7F, Rebaudioside C Galactoside] | − | − | − | 
6 | C=C1C[C@@]23CC[C@H]4[C@@](C)(CCC[C@@]4(C)C(=O)NCC(=O)OC)[C@@H]2CC[C@]1(O[C@@H]1O[C@H](CO)[C@@H](O)[C@H](O[C@@H]2O[C@H](CO)[C@@H](O)[C@H](O)[C@H]2O)[C@H]1O[C@@H]1O[C@H](CO)[C@@H](O)[C@H](O)[C@H]1O)C3 [Compound 5A1, Rebaudioside B—Glycine Methyl ester] | +++ | − | − | 
7 | OC[C@H]1O[C@@](CO)(O[C@H]2O[C@H](CO)[C@@H](O)[C@H](O)[C@H]2O)[C@@H](O)[C@@H]1O [Sucrose, reference compound] | − |  | +++ | 
8 | C=C1C[C@@]23CC[C@H]4[C@@](C)(CCC[C@@]4(C)C(=O)N[C@@H](C(=O)O)C(C)C)[C@@H]2CC[C@]1(O[C@@H]1O[C@H](CO)[C@@H](O)[C@H](O[C@@H]2O[C@H](CO)[C@@H](O)[C@H](O)[C@H]2O)[C@H]1O[C@@H]1O[C@H](CO)[C@@H](O)[C@H](O)[C@H]1O)C3 [Compound 5D2] | − | +++ |  | 
9 | C=C1C[C@@]23CC[C@H]4[C@@](C)(CCC[C@@]4(C)C(=O)O[C@@H]4O[C@H](CO)[C@@H](O)[C@H](O)[C@H]4O)[C@@H]2CC[C@]1(O[C@@H]1O[C@H](CO)[C@@H](O)[C@H](O[C@@H]2O[C@H](CO)[C@@H](O)[C@H](O)[C@H]2O)[C@H]1O[C@@H]1O[C@H](CO)[C@@H](O)[C@H](O)[C@H]1O)C3 [Rebaudioside A] |  | +++ |  | 
10 | C=C1C[C@@]23CC[C@H]4[C@@](C)(CCC[C@@]4(C)C(=O)O[C@@H]4OC[C@@H](O)[C@H](O)[C@H]4O)[C@@H]2CC[C@]1(O[C@@H]1O[C@H](CO)[C@@H](O)[C@H](O[C@@H]2O[C@H](CO)[C@@H](O)[C@H](O)[C@H]2O)[C@H]1O[C@@H]1O[C@@H](C)[C@H](O)[C@@H](O)[C@H]1O)C3 [Compound 7E, Rebaudioside C Xyloside] | − | − | − | 
11 | C=C1C[C@@]23CC[C@H]4[C@@](C)(CCC[C@@]4(C)C(=O)O[C@@H]4O[C@H](CO)[C@@H](O)[C@H](O)[C@H]4O[C@@H]4O[C@H](CO)[C@@H](O)[C@H](O)[C@H]4O)[C@@H]2CC[C@]1(O[C@@H]1O[C@H](CO)[C@@H](O)[C@H](O[C@@H]2O[C@H](CO)[C@@H](O)[C@H](O)[C@H]2O)[C@H]1O[C@@H]1O[C@@H](C)[C@H](O)[C@@H](O)[C@H]1O)C3 [Compound 7G, Rebaudioside K] | − | − | − | −
12 | C=C1C[C@@]23CC[C@H]4[C@@](C)(CCC[C@@]4(C)C(=O)N[C@@H](C)C(=O)OC)[C@@H]2CC[C@]1(O[C@@H]1O[C@H](CO)[C@@H](O)[C@H](O[C@@H]2O[C@H](CO)[C@@H](O)[C@H](O)[C@H]2O)[C@H]1O[C@@H]1O[C@H](CO)[C@@H](O)[C@H](O)[C@H]1O)C3 [Compound 5B1, Rebaudioside B- L-Alanine Methyl ester] | +++ |  | − | 
13 | C=C1C[C@@]23CC[C@H]4[C@@](C)(CCC[C@@]4(C)C(=O)O[C@@H]4OC[C@@H](O)[C@H](O)[C@H]4O)[C@@H]2CC[C@]1(O[C@@H]1O[C@H](CO)[C@@H](O)[C@H](O[C@@H]2O[C@H](CO)[C@@H](O)[C@H](O)[C@H]2O)[C@H]1O[C@@H]1O[C@H](CO)[C@@H](O)[C@H](O)[C@H]1O)C3 [Compound 7C, Rebaudioside B Xyloside] |  | +++ |  | 
14 | C=C1C[C@@]23CC[C@H]4[C@@](C)(CCC[C@@]4(C)C(=O)N[C@H](C)C(=O)OC)[C@@H]2CC[C@]1(O[C@@H]1O[C@H](CO)[C@@H](O)[C@H](O[C@@H]2O[C@H](CO)[C@@H](O)[C@H](O)[C@H]2O)[C@H]1O[C@@H]1O[C@H](CO)[C@@H](O)[C@H](O)[C@H]1O)C3 [Compound 5C1, Rebaudioside B- D-Alanine Methyl ester] |  |  | − | 
15 | C=C1C[C@@]23CC[C@H]4[C@@](C)(CCC[C@@]4(C)C(=O)N[C@@H](C(=O)OC)C(C)C)[C@@H]2CC[C@]1(O[C@@H]1O[C@H](CO)[C@@H](O)[C@H](O[C@@H]2O[C@H](CO)[C@@H](O)[C@H](O)[C@H]2O)[C@H]1O[C@@H]1O[C@H](CO)[C@@H](O)[C@H](O)[C@H]1O)C3 [Compound 5D1, Rebaudioside B- D-Valine Methyl ester] | +++ | − | − | 
